Source: patent publication US20260158031A1, “AROMATIC HETEROCYCLIC COMPOUND, PHARMACEUTICAL COMPOSITION CONTAINING THE SAME, AND USE THEREOF” (HANG ZHOU YUHONG PHARMATECH CO., LTD., priority 2021, published 2026)

Legend:
JAK3 kinase = biological target: T1, JAK3 kinase (Homo sapiens, UniProt P52333); test: Mobility shift assay, in vitro JAK3 kinase inhibitory activity; assay type: biochemical; conditions: mobility shift assay, Example 136
T1 sequence (P52333 1-1124): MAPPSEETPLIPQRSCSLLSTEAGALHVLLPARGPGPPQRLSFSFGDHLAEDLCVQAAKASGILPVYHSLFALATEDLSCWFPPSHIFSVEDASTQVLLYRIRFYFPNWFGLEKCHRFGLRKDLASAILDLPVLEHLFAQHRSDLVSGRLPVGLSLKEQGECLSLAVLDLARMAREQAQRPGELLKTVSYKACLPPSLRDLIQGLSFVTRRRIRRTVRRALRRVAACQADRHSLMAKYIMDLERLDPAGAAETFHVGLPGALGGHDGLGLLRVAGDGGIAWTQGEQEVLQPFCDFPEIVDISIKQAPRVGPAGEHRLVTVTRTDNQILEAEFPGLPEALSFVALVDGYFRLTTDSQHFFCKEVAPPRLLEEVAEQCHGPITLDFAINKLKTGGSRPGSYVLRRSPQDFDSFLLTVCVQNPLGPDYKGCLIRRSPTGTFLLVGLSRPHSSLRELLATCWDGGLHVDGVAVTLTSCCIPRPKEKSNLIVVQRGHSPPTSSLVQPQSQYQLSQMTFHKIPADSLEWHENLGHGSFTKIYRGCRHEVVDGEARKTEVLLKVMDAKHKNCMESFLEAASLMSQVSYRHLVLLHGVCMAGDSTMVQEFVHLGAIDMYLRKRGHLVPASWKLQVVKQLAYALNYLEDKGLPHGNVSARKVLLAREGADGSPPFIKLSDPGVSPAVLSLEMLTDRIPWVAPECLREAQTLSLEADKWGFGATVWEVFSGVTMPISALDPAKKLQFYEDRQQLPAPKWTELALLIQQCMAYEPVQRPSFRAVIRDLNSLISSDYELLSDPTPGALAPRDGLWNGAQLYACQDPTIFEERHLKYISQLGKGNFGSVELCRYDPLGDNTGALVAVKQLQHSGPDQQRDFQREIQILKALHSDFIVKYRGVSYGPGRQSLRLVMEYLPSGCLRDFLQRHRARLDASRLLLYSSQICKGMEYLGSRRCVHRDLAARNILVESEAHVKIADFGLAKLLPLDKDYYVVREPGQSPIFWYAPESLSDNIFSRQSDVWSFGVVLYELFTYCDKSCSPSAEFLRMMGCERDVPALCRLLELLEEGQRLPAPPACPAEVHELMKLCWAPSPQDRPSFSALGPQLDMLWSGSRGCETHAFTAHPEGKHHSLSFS
Method: A Mobility shift assay was adopted to detect compounds to be tested (see list below) for in vitro inhibitory activity on the enzyme activity of JAK3 kinase.
The compound was dissolved in 100% DMSO to formulate a 10 mM stock solution, which was stored in a −20° C. refrigerator with protection from light.
The compounds were diluted with gradients into solutions with a final concentration of 100 times in a 384-well plate. Then 250 nL was transferred to a 384 reaction plate with Echo550 for later use. 250 nL of 100% DMSO was added into the negative control well and the positive control well respectively. • (3) A kinase solution with a final concentration of 2.5 times was formulated with the 1× Kinase buffer. • (4) The compound wells and the positive control wells were added with 10 μL of the kinase solution with the final concentration of 2.5 times respectively; the negative control wells were added with 10 μL of the 1× Kinase buffer. • (5) The wells were centrifuged at 1,000 rpm for 30 seconds, mixed well by shaking, and then incubated at room temperature for 10 minutes. • (6) A mixed solution of ATP and Kinase substrate 22 with a final concentration of 25/15 times was formulated with a 1× Kinase buffer. • (7) The compound wells, positive control wells and negative control wells of the 384 reaction plate were respectively added with 15 μL of a mixed solution of ATP and the substrate at the final concentration of 25/15 times to start the reaction. • (8) The 384-well plate was centrifuged at 1,000 rpm for 30 seconds, mixed well by shaking, and then incubated at room temperature for 30 minutes. • (9) 30 μL of a detection termination solution was added to stop the kinase reaction, centrifuged at 1,000 rpm for 30 seconds, and mixed well by shaking. • (10) The conversion rate was read with Caliper EZ Reader.
% Inhibition=(Conversion %_max−Conversion %_sample)/(Conversion %_max−Conversion %_min)×100 (1) Calculation Equation
Among them: Conversion %_sample was the conversion rate reading of the sample; Conversion %_min was the mean value of the negative control wells, representing the conversion rate reading of the wells without enzyme activity; Conversion % max was the mean value of the positive control wells, representing the conversion rate reading of the wells without compound inhibition; and % Inhibition represented the percentage inhibition rate.
• by taking the log value of concentration as the X axis and taking the percent inhibition rate as the Y axis, a dose-response curve is fitted by adopting the log (inhibitor) vs. response-Variable slope of the analysis software GraphPad Prism 5, so as to obtain the IC50 value of each compound on the enzyme activity. The calculation equation was Y=Bottom+ (Top−Bottom)/(1+10^((Log IC50−X)*HillSlope)).

SRBC mouse model = test: SRBC-induced delayed type hypersensitivity (DTH) in mice; assay type: in vivo; conditions: male Balb/c mice, 100 mg/kg by gavage once a day, day 0 to day 6, FIG. 1
Method: PF-06651600 was used as a positive control compound.
Drug preparation: the compound was weighed and added with a 0.5% CMC-Na solution to prepare a drug suspension (with an administration dose of 10 mg/mL).
Induction of delayed type hypersensitivity (DTH) and administration: 30 male Balb/c mice were weighed and randomly divided into 6 groups according to body weight, with 5 mice in each group. The experimental period lasted for 7 days in total. On day 0, the mice were subcutaneously injected with sheep red blood cells (SRBCs) for sensitization. From day 0, the mice were administrated with 100 mg/kg by gavage (once a day) until day 6. On day 6, SRBCs were injected into the right hind foot pad of the mice for excitation. On day 7 of the experiment, measurements were conducted, photographs were taken, and the experiment was ended.
Pharmacodynamic detection indicators of disease models: the detection and observation indicators were the degree of redness and swelling and detected thicknesses of paw pads of the mice in the model group as induced by SRBC. The thickness of the right paw was measured as the baseline before the SRBC injection excitation on day 6. At the end of the experiment […], the thickness of the right paw was measured again, and the difference in thickness of the paw before and after the second injection was calculated.
Statistical processing: experimental data was expressed as mean±standard deviation (Mean±SD). All data was statistically analyzed using a T-test. P<0.05 was considered to be statistically different.

[1] = In vivo exposure detection in SD rats (plasma, LC-MS/MS); conditions: IG 20 mg/kg, average value
Method: Preparation and processing of standard curves and quality control samples: the compound stock solution was taken and diluted with 50% methanol and water into standard working solutions containing respective compounds at concentrations of 20, 40, 100, 200, 400, 1,000, 2,000, 4,000, and 10,000 ng/mL respectively and quality control working solutions at concentrations of 60, 600 and 8,000 ng/mL respectively. Each 47.5 μL of blank rat plasma was taken and added with 2.50 μL of a standard curve working solution and a quality control working solution respectively to prepare standard curve samples containing respective compounds at concentrations of 1.00, 2.00, 5.00, 10.00, 20.00, 50.00, 100.00, 200.00 and 500.00 ng/mL and quality control samples with concentrations of 3.00, 30.00 and 400.00 ng/mL. The samples were respectively added with 200 μL of acetonitrile (containing 2 ng/mL of verapamil as an internal standard), vortexed with shaking for 3 min, and then centrifuged at 20,000 rcf and 4° C. for 10 min, and the supernatant was taken for LC-MS/MS analysis.
Preparation and processing of plasma sample to be tested: 50 μL of the plasma sample was taken, added with 200 μL of acetonitrile (containing 2 ng/ml of verapamil as an internal standard), vortexed with shaking for 3 min, and then centrifuged at 20,000 rcf and 4° C. for 10 min, and […] for LC-MS/MS analysis.

Compound	IC50 (JAK3 kinase)	other results
C=CC(=O)N1Cc2[nH]nc(-c3ccnc4[nH]ccc34)c2C1 [YZ001076]	0.28 nM	–
C[C@@H]1Cn2ncc(-c3ccnc4[nH]ccc34)c2CN1S(C)(=O)=O [YZ001011]	> 10000 nM	–
[2H]C([2H])([2H])n1nc(-c2ccnc3[nH]ccc23)c2c1CCN(C(=O)C=C)C2 [YZ001103]	0.29 nM	–
C=CC(=O)N1CCCCn2ncc(-c3ccnc4[nH]ccc34)c2C1 [YZ001095]	7 nM	–
C[C@@H]1Cn2ncc(-c3ccnc4[nH]ccc34)c2CN1C(=O)CCl [YZ001013]	8.1 nM	–
C=CC(=O)N1Cc2c(-c3ccnc4[nH]ccc34)nn(C(C)C)c2C[C@H]1C [YZ001085]	0.53 nM	immunosuppressive effect on SRBC-induced delayed type hypersensitivity (right paw thickness) (SRBC mouse model): significant immunosuppressive effects
C=C(F)C(=O)N1Cc2c(-c3ccnc4[nH]ccc34)cnn2[C@H](C)C1 [YZ001100]	3.8 nM	–
C=CC(=O)N1CCn2ncc(-c3ccnc4[nH]ccc34)c2C1 [YZ001002]	0.14 nM	–
C=C(F)C(=O)N1Cc2c(-c3ccnc4[nH]ccc34)cnn2[C@@H]2CCCC[C@@H]21 [YZ001056]	4.2 nM	–
C=CC(=O)N1Cc2c(-c3ccnc4[nH]ccc34)cnn2[C@H]2CCC[C@H]21 [YZ001057]	0.31 nM	–
C=CC(=O)N1CCc2c(c(-c3ccnc4[nH]ccc34)nn2C(C)C)C1 [YZ001117]	6.93 nM	–
C=CC(=O)N1Cc2c(-c3ccnc4[nH]ccc34)cnn2C[C@H]1CCS(C)(=O)=O [YZ001074]	0.57 nM	–
C=C(F)C(=O)N1Cc2[nH]nc(-c3ccnc4[nH]ccc34)c2C1 [YZ001077]	7.1 nM	–
C=CC(=O)N1Cc2c(-c3ccnc4[nH]ccc34)nn(C)c2C[C@H]1C [YZ001083]	1.5 nM	–
C=C(F)C(=O)N1CCc2c(c(-c3ccnc4[nH]ccc34)nn2C(C)=O)C1 [YZ001109]	5.2 nM	–
C=CC(=O)N1Cc2c(-c3ncnc4[nH]ccc34)cnn2C[C@H]1C [YZ001018]	0.48 nM	–
C=CC(=O)N1Cc2c(-c3ncnc4[nH]ccc34)cnn2C[C@@H]1C(C)C [YZ001033]	0.12 nM	–

Compound	IC50 (JAK3 kinase)	other results
C=CC(=O)N1Cc2c(-c3ccnc4[nH]cc(C(C)=O)c34)cnn2C[C@@H]1C [YZ001063]	1.4 nM	–
C=CC(=O)N1Cc2c(-c3ccnc4[nH]ccc34)cnn2[C@@H]2CCCC[C@@H]21 [YZ001055]	0.11 nM	–
C=CC(=O)N1CCCn2ncc(-c3ccnc4[nH]ccc34)c2C1 [YZ001093]	1.4 nM	–
C=CC(=O)N1CCc2c(c(-c3ccnc4[nH]ccc34)nn2C(C)=O)C1 [YZ001108]	0.35 nM	–
C[C@H]1Cn2ncc(-c3ccnc4[nH]ccc34)c2CN1C(=O)/C=C/CN1CCCCC1 [YZ001023]	0.58 nM	–
C=C(F)C(=O)N1CCc2c(c(-c3ccnc4[nH]ccc34)nn2C)C1 [YZ001054]	–	AUClast_D [1]: 93.88 kg·ng·h/mL/mg; Cl_F_obs [1]: 235.1403 mL/min/kg; HL_Lambda_z [1]: 1.4162 h; Vz_F_obs [1]: 34.35946 L/kg; AUC(0-t) ([1]; Sprague-Dawley (SD), rat, po): 1880 ng·h/mL; Cmax ([1]; Sprague-Dawley (SD), rat, po): 1360 ng/mL; Tmax ([1]; Sprague-Dawley (SD), rat, po): 4.5 h; AUC(0-inf) ([1]; Sprague-Dawley (SD), rat, po, read-out: AUCINF_obs): 1900 ng·h/mL; MRT inf ([1]; Sprague-Dawley (SD), rat, po, read-out: MRTINF_obs): 1.95 h; immunosuppressive effect on SRBC-induced delayed type hypersensitivity (right paw thickness) (SRBC mouse model): significant immunosuppressive effects
CN(C)C/C=C/C(=O)N1Cc2c(-c3ccnc4[nH]ccc34)cnn2[C@@H]2CCC[C@@H]21 [YZ001047]	4.5 nM	–
C=CC(=O)N1Cc2c(-c3ccnc4[nH]ccc34)n[nH]c2[C@@H]1C [YZ001091]	5.1 nM	–
C=CC(=O)N1Cc2c(-c3ccnc4[nH]ccc34)cnn2[C@@H]2CCC[C@@H]21 [YZ001045]	0.19 nM	–
C=CC(=O)N1Cc2c(-c3ncnc4[nH]ccc34)cnn2C[C@H]1C(C)C [YZ001030]	2.4 nM	–
C=CC(=O)N1Cc2c(-c3ncnc4[nH]ccc34)cnn2[C@@H](C)C1 [YZ001026]	0.43 nM	–
C=CC(=O)N1Cc2c(-c3ncnc4[nH]ccc34)cnn2[C@H](C)C1 [YZ001028]	0.19 nM	–
C[C@H]1Cn2ncc(-c3ccnc4[nH]ccc34)c2CN1C(=O)/C=C/CN(C)C [YZ001022]	0.87 nM	–
C=CC(=O)N1Cc2c(-c3ncnc4[nH]ccc34)cnn2C[C@@H]1C [YZ001024]	0.15 nM	–
C[C@H]1CN(C(=O)/C=C/CN(C)C)Cc2c(-c3ncnc4[nH]ccc34)cnn21 [YZ001027]	7.8 nM	–
C=CC(=O)N1Cc2c(-c3ccnc4[nH]ccc34)cnn2[C@H](C)C1 [YZ001099]	0.2 nM	–
